Experimental data: US20200129495A1 (BioPharmX, Inc., priority 2018, published 2020)
Where two headings read alike, the source gives them in different places.

How the values were obtained:
[1] = Stability of ebastine in ethanol composition at 40° C.; format: physicochemical; details: over the tested period (2 months)
[2] = Experimental: The pH of each suspension was determined using a pH meter (Orion Star A111, Thermo Scientific, Waltham, Mass.). Following, the pH of each suspension was adjusted with acid 1N HCl to the target pH. A 2 milliliter (mL) sample of the liquid portion of the mixture (supernatant) was removed from the top of each vial and spun in a micro-centrifuge (Eppendorf Minispin, Hamburg Germany) at 12,000 rpm for 2 minutes.
A 10 microliter (μL) sample was injected into a high-performance liquid chromatography machine (HPLC) (Agilent, Santa Clara, Calif.). […] The HPLC system also used a guard column (Phenomenex, Inc.) and a mobile phase consisting of a base solvent of 70 percent (v/v) methanol (Spectrum Chemicals, Gardena, Calif.), and 30 percent (v/v) 40 mM potassium phosphate buffer, pH 4.0 (Spectrum Chemicals, Gardena, Calif.). The HPLC flow rate was 1 mL per minute with a column temperature of 40 degrees centigrade, a detection wavelength of 262 nanometers (nm), and a runtime of at least 15 minutes.

[3] = remark: listed apart in the source
Excerpt: Addition of the solvent was repeated until the test material was completely dissolved, resulting in a visually clear solution.

[4] = system: male C57BL/6J mice; details: 2% (w/w) ebastine in ethanol/propylene glycol, topical 2.5 mg/cm^2 daily
Description: Penetration into the skin was assessed in a sample size of three male mice.
The skin surface of the shaved patch was wiped clean with phosphate buffer saline (1×PBS). Mice were left to acclimate overnight.
For five weeks, the test composition was applied daily at a dose of 2.5 mg/cm^2 using a positive displacement pipette and carefully spread in the 12 cm^2 test area using a clean metal spatula.
At the end of the 5-week study period, 10 hairs from each site were plucked from the upper-middle, middle, and lower-middle patch area of each of the mice. In addition, 10 hairs were plucked from outside the patch area for each of the mice in the nontreatment group. The length of each of the plucked hairs was measured with a microcaliper and the resulting values were averaged.
In the study (as described supra), mice were shaved while in the telogen phase. Shaving stimulated hair growth by inducing the transition from rest (telogen phase) to growth (anagen phase). The shaved patch area for each mouse was observed daily for anagen onset, i.e., the first day of the anagen phase of the hair cycle.

[5] = system: male C57BL/6J mice; details: topical 2.5 mg/cm^2 daily, 5 weeks; monitored throughout the study
Description: The modified Draize test is an acute erythema test carried out as follows. A C57BL/6J mouse is shaved in an application area, and the application area allowed to rest for approximately 24 hours and then rinsed with non-irritating soap. A test composition is applied evenly, without significant rubbing, to a 12 cm^2 area of the mouse's skin in a volume of 2.5 mg/cm^2. The sample is allowed to sit uncovered for 24 hours. After 24 hours, the application area is washed gently with lx phosphate buffered saline (1×PBS) and non-irritating soap to facilitate observation of the application area. The application area is then scored according to the following scale: 0=no evidence of erythema; 1=minimal erythema, barely perceptible; 2=definite erythema, readily visible, minimal edema or minimal popular response; 3=erythema and papules; 4=definite edema; 5=erythema, edema, and papules; 6=vesicular eruption; 7=strong reaction spreading beyond test site.
The skin surface of the shaved patch was wiped clean with phosphate buffer saline (1×PBS). Mice were left to acclimate overnight. […]
Clinical signs such as behavior were monitored throughout the study. […] The patch area was assessed for signs of erythema using the modified Draize scoring system and dryness every other day throughout the study period.

## CC(C)(C)c1ccc(C(=O)CCCN2CCC(OC(c3ccccc3)c3ccccc3)CC2)cc1 [Ebastine, 1-[4-(1,1-dimethylethyl)phenyl]-4-[4-(diphenylmethoxy)-1-piperidinyl]-1-butanone]
[1]
  stability of ebastine in ethanol: stable
[2]; pH range of from 2 to 6
  solubility class in 9:1 ethanol:water: soluble (solubility of 33.3 mg/g or greater)
[2]; pH values above 6, such as 7 to 10
  solubility class in 9:1 ethanol:water: at least sparingly soluble (solubility of 10.0 mg/g or greater)
[2]; pH 2.3, room temperature
  Ebastine Solubility in 90:10 Ethanol:Water: 30.38 (mg/g)
[2]; pH 6.16, room temperature
  Ebastine Solubility in 90:10 Ethanol:Water: 33.35 (mg/g)
[2]; pH 7.76, room temperature
  Ebastine Solubility in 90:10 Ethanol:Water: 16.58 (mg/g)
[2]; pH 9.90, room temperature
  Ebastine Solubility in 90:10 Ethanol:Water: 15.3 (mg/g)
[2]; pH less than about 7, such as 2.3 to 6.2
  solubility in ethanol and water mixture compared with ethanol alone or water alone: exceeded
[2]; water alone, useful pH ranges
  solubility of ebastine in water alone: less than 2 mg/g
[2]; pH 3.04, room temperature
  Ebastine Solubility in water: 1.4 (mg/g)
[2]; pH 5.06, room temperature
  Ebastine Solubility in water: 0 (mg/g)
[2]; pH 6.91, room temperature
  Ebastine Solubility in water: 0 (mg/g)
[2]; pH below 5.0, such as 3.0 to 5.0
  solubility class in water: slightly soluble (solubility of 1.0 to 10.0 mg/g)
[2]; pH in the range of 5 to 7, room temperature
  solubility class in water: insoluble (solubility of less than 1.0 mg/g)
[2]; pH values of 5 and above
  solubility class in water: insoluble (solubility of less than 1.0 mg/g)
[3]; Benzyl Benzoate
  EBASTINE SOLUBILITY AT ROOM TEMP: >45.0 mg/g
[3]; Diethyl Sebacate
  EBASTINE SOLUBILITY AT ROOM TEMP: 120.6 mg/g
[3]; Diethylene Glycol Monoethyl Ether
  EBASTINE SOLUBILITY AT ROOM TEMP: 33.9 mg/g
[3]; Dimethyl Succinate
  EBASTINE SOLUBILITY AT ROOM TEMP: 0.47 mg/g
[3]; Ethyl Acetate
  EBASTINE SOLUBILITY AT ROOM TEMP: 245.2 mg/g
[3]; Methylpyrrolidone
  EBASTINE SOLUBILITY AT ROOM TEMP: >23.1 mg/g
[3]; Triacetin
  EBASTINE SOLUBILITY AT ROOM TEMP: <1.1 mg/g
[3]; in 1 gram of diethyl sebacate
  amount of ebastine soluble in 1 gram of diethyl sebacate: approximately 120.6 mg
[4]; mice shaved in telogen phase
  time to significant anagen induction (average): 10 days
[4]; study end, after 5 weeks
  total average patch coverage with hair: 90 % of the total patch area
[5]
  clinical signs: behavior: No abnormal behavior
